Laboratory results reported in article PMC6479983, “Activity of Estafietin and Analogues on Trypanosoma cruzi and Leishmania braziliensis” (Molecules, 2019).
Converted amounts (≈) assume the structure as drawn. “Also recorded” adds a separate entry of the source.

Experiments:
[1] = system: L. braziliensis promastigotes; test: Leishmanicidal activity on L. braziliensis promastigotes ([3H] thymidine uptake assay); format: cell-based, Leishmania braziliensis; conditions: for IC50: Leishmania braziliensis, 72 h, 0-50 µg/mL, [3H] thymidine uptake; for Selectivity Index Promastigotes L. braziliensis: Vero CC50 relative to promastigote IC50
Description: Figure 4 Leishmanicidal activity of estafietin (1) and estafietin derivatives (2–5) on L. braziliensis promastigotes. Parasites were cultured for 72 h in the presence of each compound (0–50 µg/mL). The inhibition of parasite growth was evaluated by a [^3H] thymidine uptake assay. The percentage of inhibition was calculated as 100 − [(cpm of treated parasites)/(cpm of untreated parasites)] × 100. Values represent mean ± SEM from three independent experiments carried out in triplicate. Each treatment was compared to controls: parasites incubated with culture medium only. * p < 0.05, ** p < 0.01 and *** p < 0.005. TEXT PRINTED IN THE PICTURE: Estafietin (1): IC50 (μg/mL): 1.0 | 11βH,13-dihydroestafietin (2): IC50 (μg/mL): 1.3 | α and β epoxyestafietin (3a and 3b): IC50 (μg/mL): 7.8 | 11βH,13-methoxyestafietin (4): IC50 (μg/mL): 48.7 | 11βH,13-cianoestafietin (5): IC50 (μg/mL): 51.8
The growth inhibition of Leishmania braziliensis promastigotes was evaluated by the (^3H) thymidine [(^3H)T] uptake assay. Parasites (5 × 10^6) were settled at a final volume of 150 µL in a flat-bottom 96-well microplate and cultured at 28 °C in either the absence or the increasing concentrations of the pure compounds (0–50 µg/mL). After 72 h, 1 µC of [^3H]T was added to each well, and cultures were incubated for 16 h. Counts per minute (cpm) of triplicate cultures were measured by an automated liquid scintillation counter (Packard, Downers Grove, IL, USA). The percentage of inhibition was calculated as {100 − [(cpm of treated parasites/cpm of untreated parasites) × 100]}. The compound concentration at which the parasite growth was inhibited by 50% (IC50) was determined. Amphotericin B was used as positive control.
(§1) Results are presented as means ± SEM. The GraphPad Prism 5.0 software (GraphPad Software Inc., San Diego, CA, USA) was employed to carry out calculations. To calculate IC50 and CC50 values, the percentages of inhibition were plotted against the drug concentration and fitted with a straight line determined by a linear regression (Sigma Plot 10 software, (Systat Software, San Jose, CA, USA). Results presented are representative of three to four independent experiments.

[2] = system: T. cruzi bloodstream trypomastigotes; test: Trypanocidal activity on T. cruzi bloodstream trypomastigotes (counting of living parasites in Neubauer chamber); format: cell-based, Trypanosoma cruzi; conditions: for IC50: Trypanosoma cruzi, 24 h incubation, 0-100 µg/mL, living parasites counted, read-out: IC50 against T. cruzi bloodstream trypomastigotes; for Selectivity Index Trypomastigotes T. cruzi: Vero CC50 relative to trypomastigote IC50; for activity against the infective form of T. cruzi compared with estafietin (in words): trypomastigotes, discussion statement
Description: Figure 2 Trypanocidal activity of estafietin (1) and estafietin derivatives (2–5) against T. cruzi bloodstream trypomastigotes. Bloodstream trypomastigotes were assayed in duplicate in the presence of 0 to 100 µg/mL of estafietin (1), 11βH,13-dihydroestafietin (2), α- (3a) and β-epoxyestafietin (3b) (1:4 mixture), 11βH,13-methoxyestafietin (4) and 11βH,13-cianoestafietin (5). Cultures were done in 96-well plates with 1.5 × 10^6 parasites/mL over 24 h. The living parasites were then counted in a Neubauer chamber. Symbols represent mean ± SEM. Each treatment was compared to controls: parasites incubated with culture medium only. * p < 0.05, ** p < 0.01 and *** p < 0.005. TEXT PRINTED IN THE PICTURE: Estafietin (1): IC50 (μg/mL): 25.2 | 11βH,13-dihydroestafietin (2): IC50 (μg/mL): 97.1 | α and β epoxyestafietin (3a and 3b): IC50 (μg/mL): 18.7 | 11βH,13-methoxyestafietin (4): IC50 (μg/mL): >100 | 1βH,13-cianoestafietin (5): IC50 (μg/mL): 78.1
The trypanocidal effect of the purified compounds was tested on transfected bloodstream trypomastigotes (Tulhauen strain). Briefly, mouse blood containing trypomastigotes was diluted in complete LIT medium to adjust the parasite concentration to 2 × 10^6/mL. Parasites were seeded in duplicate in a 96-well microplate in the presence of each compound (0–100 µg/mL) and controls and incubated at 4 °C for 24 h. The number of remaining living parasites in each sample was determined in 5 µL of cell suspension diluted 1/5 in lysis buffer (0.75% NH4Cl, 0.2% Tris, pH 7.2) and counted in a Neubauer chamber.
as §1

T. cruzi amastigotes = test: Inhibition of T. cruzi amastigote replication in Vero cells (β-galactosidase transfected parasites, CPRG); format: cell-based, Trypanosoma cruzi; conditions: for IC50: infected Vero cells, 0-100 µg/mL, β-galactosidase/CPRG readout, read-out: IC50 against T. cruzi amastigotes (intracellular forms); for Selectivity Index Amastigotes T. cruzi: Vero CC50 relative to amastigote IC50
Description: Figure 3 Inhibition of T. cruzi amastigotes replication by estafietin (1) and estafietin derivatives (2–5). Mammalian cells (5 × 10^3 cells/well) were seeded in 96-well plates and infected 24 h later with transfected trypomastigotes expressing β-galactosidase. After 24 h of co-culture, plates were washed and compounds were added at 0–100 µg/mL in 150 µL medium. On day 6 post-infection, the assays were developed by the addition of CPRG (100 mM) and Nonidet P-40 (1%). Plates were incubated for 6 h and the optical density was read at 570 nm. Infected untreated mammalian cells were used as 100% infection control. The percentage of inhibition was calculated as 100 − {[(Absorbance of treated infected cells)/(Absorbance of untreated infected cells)] × 100}. Symbols represent mean ± SEM. Each treatment was compared to controls: parasites incubated with culture medium only. * p < 0.05, ** p < 0.01 and *** p < 0.005. TEXT PRINTED IN THE PICTURE: Estafietin (1): IC50 (μg/mL): 28.8 | 11βH,13-dihydroestafietin (2): IC50 (μg/mL): 83.0 | α and β epoxyestafietin (3a and 3b): IC50 (μg/mL): 2.0 | 11βH,13-methoxyestafietin (4): IC50 (μg/mL): 30.5 | 11βH,13-cianoestafietin (5): IC50 (μg/mL): 99.0
The effect of the compounds on intracellular forms of T. cruzi was assayed using β-galactosidase transfected parasites. Ninety-six well culture plates were seeded with nonphagocytic Vero cells at 5 × 10^3 per well in […] of culture medium and incubated for 24 h at 37 °C in a 5% CO2 atmosphere. Cells were then washed and infected with transfected bloodstream trypomastigotes expressing β-galactosidase at a parasite/cell ratio of 10:1. After […] of coculture, plates were washed twice with PBS to remove unbound parasites and each pure compound was added at different concentrations (0–100 µg/mL) in 150 µL of fresh complete RPMI medium without phenol red (Gibco, Rockville, MD, USA). Controls included infected untreated cells (100% infection control) and uninfected cells (0% infection control). The assay was developed by the addition of chlorophenolred-β-D-galactopyranoside (CPRG) (100 mM) and 1% Nonidet P40, 5 days later. Plates were incubated for 4–6 h at 37 °C and the absorbance was measured at 595 nm in a microplate reader (Bio-Rad Laboratories, Hercules, CA, USA). The percentage inhibition was calculated as 100 – {[(absorbance of treated infected cells)/(absorbance of untreated infected cells) × 100]} and the IC50 value was estimated. Benznidazole was used as positive control.
as §1

[3] = Host cell toxicity on Vero cells by the MTT method; format: cell-based; conditions: African green monkey, 24 h, 5-500 µg/mL, read-out: CC50 (50% cytotoxic concentration)
Description: (§2) The cytotoxicity of the natural and synthetic compounds was evaluated on Vero cells by the MTT method. The 50% cytotoxic concentration (CC50) of each compound was determined. Selectivity indexes (SI) were calculated for T. cruzi trypomastigotes and amastigotes and for L. braziliensis promastigotes (Table 1).
(§3) Vero cells were employed to determine the viability by the 3-(4,5-dimethylthiazol-2yl)-2,5-diphenyltetrazolium bromide (MTT) method. Cells (5 × 10^5) were settled at a final volume of […] in a flat-bottom 96-well microplate and cultured at 37 °C in a 5% CO2 atmosphere in either the absence or the presence of increasing concentrations of the compounds (5–500 µg/mL). After 24 h, MTT was added at a final concentration of 1.5 mg/mL. Plates were incubated for 2 h at 37 °C. The purple formazan crystals formed were dissolved with […] of ethanol and the absorbance was read at 570 nm in a microplate reader. Results were calculated as the ratio between the optical density in the presence and absence of the compound multiplied by 100.
as §1

Vero cells = test: Host cell toxicity on Vero cells by the MTT method; format: cell-based
Description: as §2, §3, §1

T. cruzi epimastigotes = system: T. cruzi epimastigotes; set-up: method as in PMID 23815577; conditions: series of 15 STLs; cited from earlier work

Row | Structure (SMILES) | IC50 [1] [µg/mL] | IC50 [2] [µg/mL] | IC50 (T. cruzi amastigotes; Trypanosoma cruzi) [µg/mL] | Selectivity Index Trypomastigotes T. cruzi [2] | CC50 at 24 h [3] [µg/mL] | toxicity on mammalian cells (in words) (Vero cells) | Selectivity Index Promastigotes L. braziliensis [1] | Selectivity Index Amastigotes T. cruzi (T. cruzi amastigotes) | activity on T. cruzi epimastigotes (in words) (T. cruzi epimastigotes) | activity against the infective form of T. cruzi compared with estafietin (in words) [2] | inhibition at 5 µg/mL (T. cruzi amastigotes; Trypanosoma cruzi, Vero, at a concentration of 5.0 µg/mL, read-out: percentage of inhibition of T. cruzi amastigotes) [%]
1 | C[C@@H]1[C@H](O)[C@@H](C)/C=C/C=C/C=C/C=C/C=C/C=C/C=C/[C@H](O[C@@H]2O[C@H](C)[C@@H](O)[C@H](N)[C@@H]2O)C[C@@H]2O[C@](O)(C[C@@H](O)C[C@@H](O)[C@H](O)CC[C@@H](O)C[C@@H](O)CC(=O)O[C@H]1C)C[C@H](O)[C@H]2C(=O)O [Amphotericin B, reference compound] | 0.48 (≈ 0.519 µM) | – | – | – | – | – | – | – | – | – | –
2 | O=C(Cn1ccnc1[N+](=O)[O-])NCc1ccccc1 [Benznidazole, reference compound] | – | 11.6 (≈ 44.6 µM) | 1.8 (≈ 6.92 µM) | – | – | – | – | – | – | – | –
3 | C=C1CC[C@H]2C(=C)C(=O)O[C@@H]2C2C1C[C@H]1O[C@@]21C (stereo partly shown) [Compound 1, estafietin] | 1 (≈ 4.06 µM) | 25.2 (≈ 102 µM) | 28.8 (≈ 117 µM) | 9.5 | 240 (≈ 976 µM) | low toxicity | 240.4 | 8.3 | significant activity | – | –
4 | C=C1CCC2C(C)C(=O)OC2C2C1CC1OC12C (stereo not shown) [Compound 2, 11βH,13-dihydroestafietin] | 1.3 (≈ 5.24 µM) | 97.1 (≈ 391 µM) | 83 (≈ 334 µM) | 1.7 | 165 (≈ 663 µM) | low toxicity | 126.6 | 2.0 | – | less active | –
5 | C=C1C(=O)O[C@@H]2C3C(C[C@H]4O[C@@]34C)C3(CC[C@@H]12)CO3 (stereo partly shown) [Compound 3, epoxyestafietin] | 7.8 (≈ 29.7 µM) | 18.7 (≈ 71.3 µM) | 2 (≈ 7.62 µM) | 0.4 | 8.1 (≈ 30.9 µM) | – | 1.0 | 4.0 | – | – | > 75
6 | C=C1CCC2C(COC)C(=O)OC2C2C1CC1OC12C (stereo not shown) [Compound 4, 11βH,13-methoxyestafietin] | 48.7 (≈ 175 µM) | > 100 | 30.5 (≈ 110 µM) | 3.1 | 316 (≈ 1130 µM) | low toxicity; also recorded: not toxic | – | 10.3 | – | less active | –
7 | C=C1CCC2C(CC#N)C(=O)OC2C2C1CC1OC12C (stereo not shown) [Compound 5, 11βH,13-cianoestafietin] | 51.8 (≈ 190 µM) | 78.1 (≈ 286 µM) | 99 (≈ 362 µM) | 1.7 | 134 (≈ 489 µM) | low toxicity | 2.7 | 1.3 | – | inactive | –
